We go through 17 compounds from article PMC9736855, “Discovery of 3-Amino-1H-pyrazole-Based Kinase Inhibitors to Illuminate the Understudied PCTAIRE Family” (International Journal of Molecular Sciences, 2022).

SMILES strings stand for the structures.

The target of one test is T1, CDK16 (Homo sapiens, UniProt Q00536).
T1 construct: purchased in-house DSF panel (SGC Frankfurt)
In words: DSF. The format is binding. To be noted: 10 μM compound. From the text: (§1) To investigate the selectivity profile of the different series, a differential scanning fluorimetry (DSF) assay was used. This assay offers a rapid and sensitive screening method that determines the denaturation temperature of a protein in absence and presence of a compound. This assay format measures the fluorescence of a dye, which depends on the folding state of the protein. The difference between the melting temperature (ΔTm) in the absence and presence of the compound represents the binding strength to the protein.
(§2) Measurements were performed in duplicates.

The next test has as its target T2, CDK2 (Homo sapiens, UniProt P24941).
T2 construct: purchased in-house DSF panel (SGC Frankfurt)
In words: DSF. To be noted: 10 μM compound. The format is binding.
Source text: as §1, §2

A further test concerns the target GSK3B (Homo sapiens, UniProt P49841). The test is described as follows: DSF. The format is binding. The settings on record: 10 μM compound. Also on record: purchased in-house DSF panel (SGC Frankfurt).
Source text: as §1, §2

For a further test, the target named is T3, CDK16/Cyclin Y (Homo sapiens, UniProt Q00536).
T3 construct: Full-length kinases were obtained as plasmids cloned in frame with a terminal NanoLuc-fusion; CS1810C178 (CCNY); host or cells: HEK293T
T3 sequence (Q00536 whole entry, the tested form may be a part): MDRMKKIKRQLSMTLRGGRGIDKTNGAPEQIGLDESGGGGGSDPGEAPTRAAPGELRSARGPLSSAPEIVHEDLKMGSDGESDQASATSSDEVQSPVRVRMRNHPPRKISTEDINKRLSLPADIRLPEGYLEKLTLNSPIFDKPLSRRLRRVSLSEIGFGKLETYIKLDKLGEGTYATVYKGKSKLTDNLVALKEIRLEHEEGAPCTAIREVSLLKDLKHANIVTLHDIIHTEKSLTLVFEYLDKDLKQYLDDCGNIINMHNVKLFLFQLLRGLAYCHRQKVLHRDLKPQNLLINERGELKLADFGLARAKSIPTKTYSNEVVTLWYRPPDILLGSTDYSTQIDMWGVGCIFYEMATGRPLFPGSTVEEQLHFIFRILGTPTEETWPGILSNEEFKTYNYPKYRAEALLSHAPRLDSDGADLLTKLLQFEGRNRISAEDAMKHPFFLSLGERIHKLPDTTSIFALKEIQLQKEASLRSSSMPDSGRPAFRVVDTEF
T3 sequence (Q8ND76 2-341 partner limits assumed): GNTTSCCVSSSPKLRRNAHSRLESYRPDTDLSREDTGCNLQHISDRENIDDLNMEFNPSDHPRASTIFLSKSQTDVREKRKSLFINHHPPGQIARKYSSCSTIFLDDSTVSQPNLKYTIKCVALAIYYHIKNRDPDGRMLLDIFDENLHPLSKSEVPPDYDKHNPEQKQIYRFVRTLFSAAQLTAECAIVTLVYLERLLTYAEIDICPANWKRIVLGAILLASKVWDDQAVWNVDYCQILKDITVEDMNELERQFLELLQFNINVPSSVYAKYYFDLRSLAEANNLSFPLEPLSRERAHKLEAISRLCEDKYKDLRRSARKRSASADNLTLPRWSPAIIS
The test is described as follows: NanoBRET. The format is cell-based. To be noted: Figure 7, 11-point dose-response in duplicates; read-out: NanoBRET EC50 ± SEM against CDK16. Here is the method:
Next, to specifically quantify the outcome of the cellular activity of the compounds, a NanoBRET cellular target engagement assay was performed. The determination of the cellular potency on CDK16 correlated well with the corresponding DSF assay data (Figure S2). […] As mentioned before, the exchange from a methyl ester to an iso-propyl or tert-butyl ester led to a higher stabilization of the kinase in the DSF assay, which correlated with an increase in cellular potency as determined in the NanoBRET assay. […] The number of potential off-targets was low with 1 and 2 kinases with ΔTm >5 °C (Figure 4), highlighting these inhibitors for more comprehensive selectivity studied within the CDK and particular the TAIRE subfamily.
The assay was performed as described previously. In brief: Full-length kinases were obtained as plasmids cloned in frame with a terminal NanoLuc-fusion (Promega, Madison, WI, USA), as specified in table (Table S6). Plasmids were transfected into HEK293T cells using FuGENE HD (Promega, E2312) and proteins were allowed to express for 20h. Serially diluted inhibitor and NanoBRET Kinase Tracer (Promega) at a concentration determined previously as the KD,app (Table S5) were pipetted into white 384-well plates (Greiner 781207) using an Echo acoustic dispenser (Labcyte, San Jose, CA, USA). The corresponding protein-transfected cells were added and reseeded at a density of 2.5 × 10^5 cells/mL after trypsinization and resuspending in Opti-MEM without phenol red (Life Technologies, Carlsbad, CA, USA). The system was allowed to equilibrate for 2 h at 37 °C/5% CO2 prior to BRET measurements. To measure BRET, NanoBRET NanoGlo Substrate + Extracellular NanoLuc Inhibitor (Promega, N2540) was added as per the manufacturer’s protocol, and filtered luminescence was measured on a PHERAstar plate reader (BMG Labtech, Ortenberg, Germany) equipped with a luminescence filter pair (450 nm BP filter (donor) and 610 nm LP filter (acceptor)). Competitive displacement data were then graphed using GraphPad Prism 9 software using a normalized 3-parameter curve fit with the following equation: Y = 100/(1 + 10^(X–LogEC50)).

T1 sequence (Q00536 163-478): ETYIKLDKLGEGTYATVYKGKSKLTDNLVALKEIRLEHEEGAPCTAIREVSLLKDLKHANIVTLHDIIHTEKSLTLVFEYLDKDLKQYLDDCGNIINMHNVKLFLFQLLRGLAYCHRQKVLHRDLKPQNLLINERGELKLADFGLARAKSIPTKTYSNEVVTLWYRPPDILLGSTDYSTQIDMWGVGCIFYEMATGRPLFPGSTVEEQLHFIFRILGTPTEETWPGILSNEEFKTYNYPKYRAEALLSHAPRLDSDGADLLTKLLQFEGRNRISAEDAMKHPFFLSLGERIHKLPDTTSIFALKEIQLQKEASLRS
GSK3B, sequence (P49841 35-386): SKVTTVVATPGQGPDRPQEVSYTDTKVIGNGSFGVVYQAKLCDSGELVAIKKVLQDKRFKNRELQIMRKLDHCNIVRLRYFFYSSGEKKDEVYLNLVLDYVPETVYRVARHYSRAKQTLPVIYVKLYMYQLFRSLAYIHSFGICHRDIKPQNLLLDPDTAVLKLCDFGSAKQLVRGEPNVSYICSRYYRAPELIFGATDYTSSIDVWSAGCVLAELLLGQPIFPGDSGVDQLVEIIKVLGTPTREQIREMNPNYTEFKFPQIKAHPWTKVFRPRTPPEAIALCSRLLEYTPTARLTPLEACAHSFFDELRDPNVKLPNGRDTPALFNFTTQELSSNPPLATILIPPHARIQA

As usually defined, the ΔTm is the change in melting temperature against a reference sample. In general, EC50 refers to the midpoint of the concentration-response curve. `COC(=O)c1cc(Nc2nc(NCCOCCNC(=O)OC(C)(C)C)ncc2Cl)[nH]n1` [22d, methyl 5-((2-((2-(2-((tert-butoxycarbonyl)amino)ethoxy)ethyl)amino)-5-chloropyrimidin-4-yl)amino)-1H-pyrazole-3-carboxylate]: the shift in melting temperature (ΔTm) at 10 µM at CDK16 was determined as 0.2 ± 0.2 °C; at CDK2 it was 0.2 °C; at GSK3B, 2.1 ± 0.1 °C. Further, on CDK16/Cyclin Y, the EC50 was found to be 25000 ± 4220 nM.

As for `COC(=O)c1cc(Nc2nc(NCCCCCCNC(=O)OC(C)(C)C)ncc2Cl)[nH]n1` [22e, methyl 5-((2-((6-((tert-butoxycarbonyl)amino)hexyl)amino)-5-chloropyrimidin-4-yl)amino)-1H-pyrazole-3-carboxylate], the values for the ΔTm at 10 µM on CDK16, on CDK2 and on GSK3B were 0.2 ± 0.3 °C, 0.7 °C and 2.9 ± 0.1 °C, respectively. On CDK16/Cyclin Y, the EC50 was 12090 ± 65 nM.

In the case of `COC(=O)c1cc(Nc2nc(Nc3ccc(CCNC(=O)OC(C)(C)C)cc3)nc3ccccc23)[nH]n1` [23a, methyl 5-((2-((4-(2-((tert-butoxycarbonyl)amino)ethyl)phenyl)amino)quinazolin-4-yl)amino)-1H-pyrazole-3-carboxylate], the ΔTm at 10 µM on CDK16 was 3.4 ± 0.6 °C; at CDK2, -0.1 ± 0.1 °C; at GSK3B, 1 ± 0.1 °C. In addition, the EC50 at CDK16/Cyclin Y amounted to 9360 ± 1020 nM.

On to `COC(=O)c1cc(Nc2nc(Nc3cccc(CCNC(=O)OC(C)(C)C)c3)nc3ccccc23)[nH]n1` [23b, methyl 5-((2-((3-(2-((tert-butoxycarbonyl)amino)ethyl)phenyl)amino)quinazolin-4-yl)amino)-1H-pyrazole-3-carboxylate], for which the shift in melting temperature (ΔTm) at 10 µM on CDK16 amounted to 0.2 ± 0.2 °C; on CDK2, 0.6 °C; at GSK3B, 1.4 ± 0.3 °C. Also, the EC50 at CDK16/Cyclin Y amounted to 6820 ± 280 nM.

On to `COC(=O)c1cc(Nc2nc(NCCCCCNC(=O)OC(C)(C)C)nc3ccccc23)[nH]n1` [23c, methyl 5-((2-((5-((tert-butoxycarbonyl)amino)pentyl)amino)quinazolin-4-yl)amino)-1H-pyrazole-3-carboxylate], for which the ΔTm at 10 µM was determined as 3.4 ± 0.1 °C at CDK16, 1.3 ± 0.5 °C at CDK2 and 4.2 °C at GSK3B. The EC50 on CDK16/Cyclin Y amounted to 4600 ± 385 nM.

On to `Cc1cc(Nc2ccnc(Nc3ccc(CCNC(=O)OC(C)(C)C)cc3)n2)[nH]n1` [38a, tert-butyl 4-((4-((3-methyl-1H-pyrazol-5-yl)amino)pyrimidin-2-yl)amino)phenethyl-carbamate], for which the shift in melting temperature (ΔTm) at 10 µM at CDK16 stood at 5.7 ± 0.2 °C; on CDK2, 10.7 ± 0.1 °C; on GSK3B, 10.4 ± 0.1 °C. In addition, the EC50 at CDK16/Cyclin Y was 388 ± 32 nM.

In the case of `Cc1cc(Nc2ccnc(NCCCCCNC(=O)OC(C)(C)C)n2)[nH]n1` [38b, tert-butyl (5-((4-((3-methyl-1H-pyrazol-5-yl)amino)pyrimidin-2-yl)amino)pentyl)-carbamate], the ΔTm at 10 µM on CDK16 was 5.8 ± 0.2 °C; at CDK2, 4.7 ± 0.1 °C; on GSK3B, 4.6 ± 0.1 °C. In addition, the EC50 on CDK16/Cyclin Y amounted to 253 ± 19.2 nM.

Take `CC(C)c1cc(Nc2ccnc(Nc3ccc(CCNC(=O)OC(C)(C)C)cc3)n2)[nH]n1` [39a, tert-butyl 4-((4-((3-isopropyl-1H-pyrazol-5-yl)amino)pyrimidin-2-yl)amino)phenethyl-carbamate]: the ΔTm at 10 µM is 7.9 ± 0.4 °C on CDK16, 9.8 ± 1.3 °C on CDK2 and 7 ± 0.1 °C at GSK3B. The EC50 on CDK16/Cyclin Y was 70 ± 4.9 nM.

Consider `CC(C)c1cc(Nc2ccnc(NCCCCCNC(=O)OC(C)(C)C)n2)[nH]n1` [39b, tert-butyl (5-((4-((3-isopropyl-1H-pyrazol-5-yl)amino)pyrimidin-2-yl)amino)pentyl)-carbamate], for which the values for the ΔTm at 10 µM on CDK16, at CDK2 and at GSK3B were 8.6 ± 0.1 °C, 9.5 ± 0.1 °C and 6.2 ± 0.1 °C, respectively. In addition, at CDK16/Cyclin Y, the EC50 was found to be 47 ± 4.1 nM.

Consider `CC(C)(C)OC(=O)NCCc1ccc(Nc2nccc(Nc3cc(C(C)(C)C)n[nH]3)n2)cc1` [40a, tert-butyl 4-((4-((3-(tert-butyl)-1H-pyrazol-5-yl)amino)pyrimidin-2-yl)amino)phenethyl-carbamate], for which the ΔTm at 10 µM at CDK16 came out at 4.4 ± 0.1 °C; at CDK2 it was 5.8 ± 0.1 °C; at GSK3B, 5.7 °C. Moreover, at CDK16/Cyclin Y, the EC50 was found to be 1130 ± 20.5 nM.

In the case of `CC(C)(C)OC(=O)NCCCCCNc1nccc(Nc2cc(C(C)(C)C)n[nH]2)n1` [40b, tert-butyl (5-((4-((3-(tert-butyl)-1H-pyrazol-5-yl)amino)pyrimidin-2-yl)amino)pentyl)-carbamate], the results for the ΔTm at 10 µM on CDK16, on CDK2 and on GSK3B were 5.1 ± 0.1 °C, 4.3 ± 0.1 °C and 4.9 ± 0.1 °C, respectively. Moreover, the EC50 at CDK16/Cyclin Y is 504 ± 9.3 nM.

For `CC(C)(C)c1cc(Nc2ccnc(Nc3ccc(CC#N)cc3)n2)[nH]n1` [40c, 2-(4-((4-((3-(tert-butyl)-1H-pyrazol-5-yl)amino)pyrimidin-2-yl)amino)phenyl)acetonitrile], the results for the ΔTm at 10 µM on CDK16, on CDK2 and on GSK3B were 5.7 ± 0.1 °C, 10.7 ± 0.1 °C and 10.4 °C, respectively. Moreover, at CDK16/Cyclin Y, the EC50 is 351 ± 34.1 nM.

Consider `CNC(=O)c1cc(Nc2ccnc(Nc3ccc(CCNC(=O)OC(C)(C)C)cc3)n2)[nH]n1` [41a, tert-butyl 4-((4-((3-(methylcarbamoyl)-1H-pyrazol-5-yl)amino)pyrimidin-2-yl)amino)-phenethylcarbamate], for which the ΔTm at 10 µM at CDK16 was 0.9 °C; at CDK2, 1.2 ± 0.2 °C; on GSK3B, 2.9 °C. Besides, the half-maximal effective concentration (EC50) at CDK16/Cyclin Y stood at 4160 ± 274 nM.

Turning to `CNC(=O)c1cc(Nc2ccnc(NCCCCCNC(=O)OC(C)(C)C)n2)[nH]n1` [41b, tert-butyl (5-((4-((3-(methylcarbamoyl)-1H-pyrazol-5-yl)amino)pyrimidin-2-yl)amino)-pentyl)carbamate], the ΔTm at 10 µM on CDK16 is 1.5 ± 0.1 °C; at CDK2 it was 1.2 ± 0.2 °C; at GSK3B, 1.3 ± 0.1 °C. The EC50 at CDK16/Cyclin Y was 2470 ± 248 nM.

In the case of `CNC(=O)c1cc(Nc2ccnc(Nc3ccc(CC#N)cc3)n2)[nH]n1` [41c, 5-((2-((4-(cyanomethyl)phenyl)amino)pyrimidin-4-yl)amino)-N-methyl-1H-pyrazole-3-carboxamide], the ΔTm at 10 µM on CDK16 turned out to be 1.4 ± 0.4 °C; at CDK2 it was 2.7 ± 0.2 °C; at GSK3B, 9.3 ± 0.1 °C. The EC50 at CDK16/Cyclin Y is 5550 ± 636 nM.

As for `CC(=O)NCCCCCCNc1nccc(Nc2cc(C3CC3)n[nH]2)n1` [compound 15, N-(6-((4-((3-cyclopropyl-1H-pyrazol-5-yl)amino)pyrimidin-2-yl)amino)hexyl)acetamide], the results for the ΔTm at 10 µM at CDK16, on CDK2 and at GSK3B were 8.8 ± 0.1 °C, 11.3 °C and 7.9 ± 0.1 °C, respectively. The concentration giving a half-maximal response (EC50) on CDK16/Cyclin Y came out at 100 ± 7 nM.

In the case of `COC(=O)c1cc(Nc2ccnc(NCc3ccc(N)cc3)n2)n[nH]1` [compound 25, methyl 3-((2-((4-aminobenzyl)amino)pyrimidin-4-yl)amino)-1H-pyrazole-5-carboxylate], the values for the ΔTm at 10 µM on CDK16, on CDK2 and at GSK3B were 5.6 °C, 5.1 °C and 10.3 ± 0.1 °C, respectively. The concentration giving a half-maximal response (EC50) on CDK16/Cyclin Y came to 400 ± 30.6 nM.
